Results as given in ChEMBL document CHEMBL2040820, “Synthesis and selective cytotoxic activity of novel hybrid chalcones against prostate cancer cells” (Bioorg Med Chem Lett, 2012).

Tests used:
[1] = test system: PC-3; assay: Anticancer activity against human PC3 cells after 48 hrs by MTT assay; type: functional, cell-based; settings: PC-3, 48 h
[2] = test system: HT-29; assay: Anticancer activity against human HT-29 cells after 48 hrs by MTT assay; type: functional, cell-based; settings: HT-29, 48 h
[3] = test system: B16; assay: Anticancer activity against mouse B16 cells after 48 hrs by MTT assay; type: functional, cell-based; settings: B16, 48 h
[4] = test system: NCI-H460; assay: Anticancer activity against human NCI-H460 cells after 48 hrs by MTT assay; type: functional, cell-based; settings: NCI-H460, 48 h
[5] = test system: B16; assay: Growth inhibition of mouse B16 cells at 100 uM after 48 hrs by MTT assay; type: functional; settings: B16, 48 h, read-out: GI
[6] = test system: HT-29; assay: Growth inhibition of human HT-29 cells at 100 uM after 48 hrs by MTT assay; type: functional; settings: HT-29, 48 h, read-out: GI
[7] = test system: PC-3; assay: Growth inhibition of human PC3 cells at 100 uM after 48 hrs by MTT assay; type: functional; settings: PC-3, 48 h, read-out: GI
[8] = test system: NCI-H460; assay: Growth inhibition of human NCI-H460 cells at 100 uM after 48 hrs by MTT assay; type: functional; settings: NCI-H460, 48 h, read-out: GI

For `CC1(C)Cc2c(ccc(C(=O)/C=C/c3ccccc3)c2OCc2ccccc2)O1`, the IC50 [1] was over 100 µM, the IC50 [2] was over 100 µM and the IC50 [3] was over 100 µM. It also gave an IC50 [4] of over 100 µM.

In the case of `CC1(C)Cc2c(ccc(C(=O)/C=C/c3ccc(F)cc3)c2OCc2ccccc2)O1`, the IC50 [1] is reported as 44.2 µM, the IC50 [2] is reported as 23 µM and the IC50 [3] is reported as over 100 µM. For the same molecule, the IC50 [4] was 75.8 µM.

`CC1(C)Cc2c(ccc(C(=O)/C=C/c3ccc(Cl)cc3)c2OCc2ccccc2)O1` showed an IC50 [1] of over 100 µM, an IC50 [2] of over 100 µM and an inhibition of growth at 100 µM [5] of under 10%. It also gave an IC50 [4] of over 100 µM.

`CC1(C)Cc2c(ccc(C(=O)/C=C/c3ccc(Br)cc3)c2OCc2ccccc2)O1` gave an IC50 [1] of over 50 µM, an inhibition of growth at 100 µM [6] of under 10% and an inhibition of growth at 100 µM [5] of under 10%. For the same molecule, the IC50 [4] was over 100 µM.

Work on `COc1ccc(/C=C/C(=O)c2ccc3c(c2OCc2ccccc2)CC(C)(C)O3)cc1` yielded an IC50 [1] of 48.9 µM, an inhibition of growth at 100 µM [6] of under 10% and an IC50 [3] of over 100 µM. For the same molecule, the IC50 [4] was over 100 µM.

With `CC1(C)Cc2c(ccc(C(=O)/C=C/c3ccc(Cl)cc3Cl)c2OCc2ccccc2)O1` the inhibition of growth at 100 µM [7] was under 10%, the IC50 [2] was over 100 µM and the IC50 [3] was over 100 µM. It also gave an IC50 [4] of over 100 µM.

With `CC1(C)Cc2c(ccc(C(=O)/C=C/c3cn(-c4ccccc4)nc3-c3ccccc3)c2OCc2ccccc2)O1` the IC50 [1] was over 100 µM, the IC50 [2] was over 100 µM and the IC50 [3] was over 100 µM. The inhibition of growth at 100 µM [8] was under 10%.

`Cc1ccc(-c2nn(-c3ccccc3)cc2/C=C/C(=O)c2ccc3c(c2OCc2ccccc2)CC(C)(C)O3)cc1` gave an IC50 [1] of 24.2 µM, an IC50 [2] of over 100 µM and an inhibition of growth at 100 µM [5] of under 10%. The IC50 [4] was over 100 µM.

`CC1(C)Cc2c(ccc(C(=O)/C=C/c3cn(-c4ccccc4)nc3-c3ccc(Cl)cc3)c2OCc2ccccc2)O1` showed an IC50 [1] of 26 µM, an IC50 [2] of over 100 µM and an inhibition of growth at 100 µM [5] of under 10%. The IC50 [4] was over 100 µM.

With `COc1ccc(-c2nn(-c3ccccc3)cc2/C=C/C(=O)c2ccc3c(c2OCc2ccccc2)CC(C)(C)O3)cc1` the IC50 [1] was 18.4 µM, the IC50 [2] was over 100 µM and the inhibition of growth at 100 µM [5] was under 10%. For the same molecule, the IC50 [4] was over 100 µM.

In the case of `CC1(C)Cc2c(ccc(C(=O)/C=C/c3cn(-c4ccccc4)nc3-c3ccc([N+](=O)[O-])cc3)c2OCc2ccccc2)O1`, the IC50 [1] is reported as 62.3 µM, the inhibition of growth at 100 µM [6] is reported as under 10% and the inhibition of growth at 100 µM [5] is reported as under 10%. The inhibition of growth at 100 µM [8] was under 10%.

With `CC1(C)Cc2c(ccc(C(=O)/C=C/c3cn(-c4ccccc4)nc3-c3cccc([N+](=O)[O-])c3)c2OCc2ccccc2)O1` the IC50 [1] was over 100 µM, the IC50 [2] was over 100 µM and the IC50 [3] was over 50 µM. For the same molecule, the IC50 [4] was over 100 µM.

For `CC1(C)Cc2c(OCc3ccccc3)ccc(C(=O)/C=C/c3ccccc3)c2O1`, the inhibition of growth at 100 µM [7] was under 10%, the inhibition of growth at 100 µM [6] was under 10% and the IC50 [3] was 30.3 µM. The IC50 [4] was over 100 µM.

Work on `CC1(C)Cc2c(OCc3ccccc3)ccc(C(=O)/C=C/c3ccc(F)cc3)c2O1` yielded an inhibition of growth at 100 µM [7] of under 10%, an inhibition of growth at 100 µM [6] of under 10% and an IC50 [3] of over 100 µM. For the same molecule, the IC50 [4] was 22.3 µM.

In the case of `CC1(C)Cc2c(OCc3ccccc3)ccc(C(=O)/C=C/c3ccc(Cl)cc3)c2O1`, the IC50 [1] is reported as over 100 µM, the inhibition of growth at 100 µM [6] is reported as under 10% and the IC50 [3] is reported as over 100 µM. It also gave an inhibition of growth at 100 µM [8] of under 10%.

`CC1(C)Cc2c(OCc3ccccc3)ccc(C(=O)/C=C/c3ccc(Br)cc3)c2O1` showed an IC50 [1] of over 100 µM, an IC50 [2] of over 100 µM and an inhibition of growth at 100 µM [5] of under 10%. For the same molecule, the IC50 [4] was over 100 µM.

With `COc1ccc(/C=C/C(=O)c2ccc(OCc3ccccc3)c3c2OC(C)(C)C3)cc1` the IC50 [1] was 13.5 µM, the inhibition of growth at 100 µM [6] was under 10% and the inhibition of growth at 100 µM [5] was under 10%. For the same molecule, the IC50 [4] was over 100 µM.

`CC1(C)Cc2c(OCc3ccccc3)ccc(C(=O)/C=C/c3ccc(Cl)cc3Cl)c2O1` gave an IC50 [1] of over 100 µM, an inhibition of growth at 100 µM [6] of under 10% and an inhibition of growth at 100 µM [5] of under 10%. The inhibition of growth at 100 µM [8] was under 10%.

`CC1(C)Cc2c(OCc3ccccc3)ccc(C(=O)/C=C/c3cn(-c4ccccc4)nc3-c3ccccc3)c2O1` showed an inhibition of growth at 100 µM [7] of under 10%, an inhibition of growth at 100 µM [6] of under 10% and an IC50 [3] of over 100 µM. The inhibition of growth at 100 µM [8] was under 10%.

For `Cc1ccc(-c2nn(-c3ccccc3)cc2/C=C/C(=O)c2ccc(OCc3ccccc3)c3c2OC(C)(C)C3)cc1`, the IC50 [1] was over 100 µM, the inhibition of growth at 100 µM [6] was under 10% and the IC50 [3] was over 100 µM. For the same molecule, the inhibition of growth at 100 µM [8] was under 10%.

Molecule `CC1(C)Cc2c(OCc3ccccc3)ccc(C(=O)/C=C/c3cn(-c4ccccc4)nc3-c3ccc(Cl)cc3)c2O1` has an IC50 [1] of 8.4 µM, an inhibition of growth at 100 µM [6] of under 10% and an inhibition of growth at 100 µM [5] of under 10%. For the same molecule, the inhibition of growth at 100 µM [8] was under 10%.

`COc1ccc(-c2nn(-c3ccccc3)cc2/C=C/C(=O)c2ccc(OCc3ccccc3)c3c2OC(C)(C)C3)cc1` showed an IC50 [1] of 7.9 µM, an IC50 [2] of over 100 µM and an inhibition of growth at 100 µM [5] of under 10%. For the same molecule, the inhibition of growth at 100 µM [8] was under 10%.

Work on `CC1(C)Cc2c(OCc3ccccc3)ccc(C(=O)/C=C/c3cn(-c4ccccc4)nc3-c3ccc([N+](=O)[O-])cc3)c2O1` yielded an IC50 [1] of over 100 µM, an IC50 [2] of over 100 µM and an IC50 [3] of over 100 µM. The IC50 [4] was over 100 µM.

For `CC1(C)Cc2c(OCc3ccccc3)ccc(C(=O)/C=C/c3cn(-c4ccccc4)nc3-c3cccc([N+](=O)[O-])c3)c2O1`, the IC50 [1] was 5.9 µM, the inhibition of growth at 100 µM [6] was under 10% and the inhibition of growth at 100 µM [5] was under 10%. The IC50 [4] was over 100 µM.

With `COc1ccc(/C=C/C(=O)c2ccc(O)c3c2OC(C)(C)C3)cc1` the IC50 [1] was 48.4 µM.

`CC1(C)Cc2c(O)ccc(C(=O)/C=C/c3cn(-c4ccccc4)nc3-c3ccc(Cl)cc3)c2O1` was tested, and the IC50 [1] was 18 µM.

With `COc1ccc(-c2nn(-c3ccccc3)cc2/C=C/C(=O)c2ccc(O)c3c2OC(C)(C)C3)cc1` the IC50 [1] was 20.8 µM.

Molecule `CC1(C)Cc2c(O)ccc(C(=O)/C=C/c3cn(-c4ccccc4)nc3-c3cccc([N+](=O)[O-])c3)c2O1` has an IC50 [1] of 25.6 µM.

`COc1cccc2c1C(=O)c1c(O)c3c(c(O)c1C2=O)C[C@@](O)(C(=O)CO)C[C@@H]3O[C@H]1C[C@H](N)[C@H](O)[C@H](C)O1` [DOXORUBICIN] was tested, and the IC50 [1] was 5.9 µM, the IC50 [2] was 19.3 µM and the IC50 [3] was 0.03 µM. The IC50 [4] was 5.6 µM.
